Results: patent US20250304559A1, “Ether-Linked Antiviral Compounds” (Pfizer Inc., priority 2021, published 2025)
Read-outs that look alike come from different tables or passages of the source.

How the values were obtained:
SARS-CoV-2 3CL protease = target: T1, SARS-CoV-2 3CL protease (Severe acute respiratory syndrome coronavirus 2, UniProt P0DTD1); experiment: SARS-CoV-2 Coronavirus 3C Protease FRET Assay; type: biochemical; details: Morrison equation fit, 15 nM enzyme, 25 μM peptide substrate
T1 construct: measures the activity of full-length SARS-CoV-2 3CL protease

[1] = tested on: SARS-CoV-2 (USA_WA1/2020); experiment: Antiviral Activity from SARS-CoV-2 Infection (cytopathic effect, Cell Titer-Glo); type: cell-based; details: Severe acute respiratory syndrome coronavirus 2, Vero C1008, 72 h, VeroE6 cells enriched for hACE2, MOI 0.002, 3-day incubation; tested alone or with P-gp inhibitor CP-100356 2 μM (table does not say which); read-out: Geometric Mean EC50
[2] = Examples 14-78 and 114 (second head of Table 2), read-out: Geometric Mean Ki (nM) IC50
[3] = Examples 1-13, 60 minutes at 23° C., read-out: Geometric Mean Ki

Compound	Ki (SARS-CoV-2 3CL protease; [2])	EC50 [1]	Ki (SARS-CoV-2 3CL protease; [3])
CC(C)(C)[C@H](NS(=O)(=O)C(F)(F)F)C(=O)N1C[C@H]2[C@@H]([C@H]1C(=O)N[C@@H](C[C@@H]1CCNC1=O)C(=O)COc1cccc(Cl)c1)C2(C)C [Example 28, (1R,2S,5S)-N-{(2S)-4-(3-chlorophenoxy)-3-oxo-1-[(3S)-2-oxopyrrolidin-3-yl]butan-2-yl}-6,6-dimethyl-3-[3-methyl-N-(trifluoromethanesulfonyl)-L-valyl]-3-azabicyclo[3.1.0]hexane-2-carboxamide]	2.15 nM	16.8 nM	
COC(=O)N[C@H](C(=O)N1C[C@H]2[C@@H]([C@H]1C(=O)N[C@@H](C[C@@H]1CCNC1=O)C(=O)COc1cccc(Cl)c1)C2(C)C)C(C)(C)C [Example 16, methyl {(2S)-1-[(1R,2S,5S)-2-({(2S)-4-(3-chlorophenoxy)-3-oxo-1-[(3S)-2-oxopyrrolidin-3-yl]butan-2-yl}carbamoyl)-6,6-dimethyl-3-azabicyclo[3.1.0]hexan-3-yl]-3,3-dimethyl-1-oxobutan-2-yl}carbamate]	0.21 nM	11.6 nM	
CCc1c(OCC(=O)[C@H](C[C@@H]2CCNC2=O)NC(=O)[C@@H]2[C@@H]3[C@H](CN2C(=O)[C@@H](NC(=O)C(F)(F)F)C(C)C)C3(C)C)noc1C [Example 67, (1R,2S,5S)-N-{(2S)-4-[(4-ethyl-5-methyl-1,2-oxazol-3-yl)oxy]-3-oxo-1-[(3S)-2-oxopyrrolidin-3-yl]butan-2-yl}-6,6-dimethyl-3-[N-(trifluoroacetyl)-L-valyl]-3-azabicyclo[3.1.0]hexane-2-carboxamide]	107 nM	1750 nM	
CC(C)[C@H](NS(=O)(=O)C(F)(F)F)C(=O)N1C[C@H]2[C@@H]([C@H]1C(=O)N[C@@H](C[C@@H]1CC(O)NC1=O)C(=O)COc1ccc(F)cc1F)C2(C)C (stereo partly drawn) [Example 54, (1R,2S,5S)-N-{(2S)-4-(2,4-difluorophenoxy)-1-[(3R)-5-hydroxy-2-oxopyrrolidin-3-yl]-3-oxobutan-2-yl}-6,6-dimethyl-3-[N-(trifluoromethanesulfonyl)-L-valyl]-3-azabicyclo[3.1.0]hexane-2-carboxamide]	11.3 nM	2250 nM	
CC(C)[C@H](NC(=O)C(F)(F)F)C(=O)N1C[C@H]2[C@@H]([C@H]1C(=O)N[C@@H](C[C@@H]1CC(=O)NC1=O)C(=O)COc1ccc(F)cc1F)C2(C)C [Example 42, (1R,2S,5S)-N-{(2S)-4-(2,4-difluorophenoxy)-1-[(3R)-2,5-dioxopyrrolidin-3-yl]-3-oxobutan-2-yl}-6,6-dimethyl-3-[N-(trifluoroacetyl)-L-valyl]-3-azabicyclo[3.1.0]hexane-2-carboxamide]	7.05 nM	301 nM	
CC(C)[C@H](NC(=O)C(F)(F)F)C(=O)N1C[C@H]2[C@@H]([C@H]1C(=O)N[C@@H](C[C@@H]1CCNC1=O)C(=O)COc1nnc(C(F)(F)F)n1C)C2(C)C [Example 74, (1R,2S,5S)-6,6-dimethyl-N-{(2S)-4-{[4-methyl-5-(trifluoromethyl)-4H-1,2,4-triazol-3-yl]oxy}-3-oxo-1-[(3S)-2-oxopyrrolidin-3-yl]butan-2-yl}-3-[N-(trifluoroacetyl)-L-valyl]-3-azabicyclo[3.1.0]hexane-2-carboxamide]	919 nM	25700 nM	
CCC([C@H](NC(=O)C(F)(F)F)C(=O)N1C[C@H]2[C@@H]([C@H]1C(=O)N[C@@H](C[C@@H]1CCNC1=O)C(=O)COc1ccc(F)cc1F)C2(C)C)C(F)(F)F (stereo in doubt) [Example 57, (1R,2S,5S)-N-{(2S)-4-(2,4-difluorophenoxy)-3-oxo-1-[(3S)-2-oxopyrrolidin-3-yl]butan-2-yl}-6,6-dimethyl-3-[3′,3′,3′-trifluoro-N-(trifluoroacetyl)-L-isoleucyl]-3-azabicyclo[3.1.0]hexane-2-carboxamide]	17.3 nM	275 nM	
Cn1nc(C(F)(F)F)cc1OCC(=O)[C@H](C[C@@H]1CCNC1=O)NC(=O)[C@@H]1[C@@H]2[C@H](CN1C(=O)[C@@H](NC(=O)C(F)(F)F)C(C)(C)C)C2(C)C [Example 8, (1R,2S,5S)-6,6-dimethyl-3-[3-methyl-N-(trifluoroacetyl)-L-valyl]-N-{(2S)-4-{[1-methyl-3-(trifluoromethyl)-1H-pyrazol-5-yl]oxy}-3-oxo-1-[(3S)-2-oxopyrrolidin-3-yl]butan-2-yl}-3-azabicyclo[3.1.0]hexane-2-carboxamide]		49.1 nM	2.87 nM
CC(C)[C@H](NC(=O)C(F)(F)F)C(=O)N1CC[C@@H](C)C[C@H]1C(=O)N[C@@H](C[C@@H]1CCNC1=O)C(=O)COc1ccc(F)cc1F (relative stereo) [Example 69, (2R*,4S*)-N-{(2S)-4-(2,4-difluorophenoxy)-3-oxo-1-[(3S)-2-oxopyrrolidin-3-yl]butan-2-yl}-4-methyl-1-[N-(trifluoroacetyl)-L-valyl]piperidine-2-carboxamide]	219 nM	562 nM	
CC(C)(C)[C@H](NS(=O)(=O)C(F)(F)F)C(=O)N1C[C@H]2[C@@H]([C@H]1C(=O)N[C@@H](C[C@@H]1CCNC1=O)C(=O)COc1cccc(C(F)(F)F)c1)C2(C)C [Example 10, (1R,2S,5S)-6,6-dimethyl-3-{3-methyl-N-[(trifluoromethyl)sulfonyl]-L-valyl}-N-{(2S)-3-oxo-1-[(3S)-2-oxopyrrolidin-3-yl]-4-[3-(trifluoromethyl)phenoxy]butan-2-yl}-3-azabicyclo[3.1.0]hexane-2-carboxamide]		167 nM	8.34 nM
Cn1nc(C(F)(F)F)cc1OCC(=O)[C@H](C[C@@H]1CCNC1=O)NC(=O)[C@@H]1[C@@H]2[C@H](CN1C(=O)[C@@H](NS(=O)(=O)C(F)(F)F)C(C)(C)C)C2(C)C [Example 6, (1R,2S,5S)-6,6-dimethyl-N-{(2S)-4-{[1-methyl-3-(trifluoromethyl)-1H-pyrazol-5-yl]oxy}-3-oxo-1-[(3S)-2-oxopyrrolidin-3-yl]butan-2-yl}-3-{3-methyl-N-[(trifluoromethyl)sulfonyl]-L-valyl}-3-azabicyclo[3.1.0]hexane-2-carboxamide]		735 nM	19.8 nM
CC(C)(C)[C@H](NS(=O)(=O)C(F)(F)F)C(=O)N1C[C@H]2[C@@H]([C@H]1C(=O)N[C@H](C[C@@H]1CCNC1=O)C(=O)COc1ccc(F)cc1F)C2(C)C [Example 68, (1R,2S,5S)-N-{(2R)-4-(2,4-difluorophenoxy)-3-oxo-1-[(3S)-2-oxopyrrolidin-3-yl]butan-2-yl}-6,6-dimethyl-3-[3-methyl-N-(trifluoromethanesulfonyl)-L-valyl]-3-azabicyclo[3.1.0]hexane-2-carboxamide]	129 nM	97 nM	
CC(C)(C)[C@H](NS(=O)(=O)C(F)(F)F)C(=O)N1C[C@H]2[C@@H]([C@H]1C(=O)N[C@@H](C[C@@H]1CC(O)NC1=O)C(=O)COc1ccc(F)cc1F)C2(C)C (stereo partly drawn) [Example 38, (1R,2S,5S)-N-{(2S)-4-(2,4-difluorophenoxy)-1-[(3R)-5-hydroxy-2-oxopyrrolidin-3-yl]-3-oxobutan-2-yl}-6,6-dimethyl-3-[3-methyl-N-(trifluoromethanesulfonyl)-L-valyl]-3-azabicyclo[3.1.0]hexane-2-carboxamide]	4.12 nM	1390 nM	
CC(C)c1cccc(OCC(=O)[C@H](C[C@@H]2CCNC2=O)NC(=O)[C@@H]2[C@@H]3[C@H](CN2C(=O)[C@@H](NC(=O)C(F)(F)F)C(C)C)C3(C)C)c1 [Example 56, (1R,2S,5S)-6,6-dimethyl-N-{(2S)-3-oxo-1-[(3S)-2-oxopyrrolidin-3-yl]-4-[3-(propan-2-yl)phenoxy]butan-2-yl}-3-[N-(trifluoroacetyl)-L-valyl]-3-azabicyclo[3.1.0]hexane-2-carboxamide]	14.4 nM	119 nM	
Cc1cc(OCC(=O)[C@H](C[C@@H]2CCNC2=O)NC(=O)[C@@H]2[C@@H]3[C@H](CN2C(=O)[C@@H](NC(=O)C(F)(F)F)C(C)C)C3(C)C)no1 [Example 61, (1R,2S,5S)-6,6-dimethyl-N-{(2S)-4-[(5-methyl-1,2-oxazol-3-yl)oxy]-3-oxo-1-[(3S)-2-oxopyrrolidin-3-yl]butan-2-yl}-3-[N-(trifluoroacetyl)-L-valyl]-3-azabicyclo[3.1.0]hexane-2-carboxamide]	31.7 nM	1800 nM	
CCn1nc(C)cc1OCC(=O)[C@H](C[C@@H]1CCNC1=O)NC(=O)[C@@H]1[C@@H]2[C@H](CN1C(=O)[C@@H](NC(=O)C(F)(F)F)C(C)(C)C)C2(C)C [Example 27, (1R,2S,5S)-N-{(2S)-4-[(1-ethyl-3-methyl-1H-pyrazol-5-yl)oxy]-3-oxo-1-[(3S)-2-oxopyrrolidin-3-yl]butan-2-yl}-6,6-dimethyl-3-[3-methyl-N-(trifluoroacetyl)-L-valyl]-3-azabicyclo[3.1.0]hexane-2-carboxamide]	8.84 nM	422 nM	
CC(C)[C@H](NC(=O)C(F)(F)F)C(=O)N1C[C@H]2[C@@H]([C@H]1C(=O)NC(C[C@@H]1CCNC1=O)C(=O)COc1ccc(F)cc1F)C2(C)C (mixture of isomers) [Example 35, (1R,2S,5S)-N-{(2RS)-4-(2,4-difluorophenoxy)-3-oxo-1-[(3S)-2-oxopyrrolidin-3-yl]butan-2-yl}-6,6-dimethyl-3-[N-(trifluoroacetyl)-L-valyl]-3-azabicyclo[3.1.0]hexane-2-carboxamide]	2.76 nM	93.8 nM	
CCC([C@H](NS(=O)(=O)C(F)(F)F)C(=O)N1C[C@H]2[C@@H]([C@H]1C(=O)N[C@@H](C[C@@H]1CCNC1=O)C(=O)COc1ccc(F)cc1F)C2(C)C)C(F)(F)F (stereo in doubt) [Example 63, (1R,2S,5S)-N-{(2S)-4-(2,4-difluorophenoxy)-3-oxo-1-[(3S)-2-oxopyrrolidin-3-yl]butan-2-yl}-6,6-dimethyl-3-[3′,3′,3′-trifluoro-N-(trifluoromethanesulfonyl)-L-isoleucyl]-3-azabicyclo[3.1.0]hexane-2-carboxamide]	54.2 nM	5550 nM	
